Measured values: PubChem BioAssay AID1745844 (Carcinogenic Potency Database (CPDB), 2022)
Active and inactive are the calls of the source. The rule behind the calls is not given here.

System: rodent lifetime carcinogenesis bioassay, tumor incidence TD50
Experiment: carcinogenic potency in animals, long-term in vivo studies, CPDB compilation (AID 1745844)

With `CC(=O)Nc1ccc(S(=O)(=O)O)c2cc(S(=O)(=O)O)c(N=Nc3ccc(N=Nc4ccc(S(=O)(=O)O)cc4)c4ccc(S(=O)(=O)O)cc34)c(O)c12` the carcinogen call (mouse, strain CFW, females, in feed, site: liver, lesion: one or several types, types not named, dosed 80 weeks, study length 80 weeks) was “negative (inactive)”, the carcinogen call (mouse, strain CFW, females, in feed, site: lung, lesion: adenoma, dosed 80 weeks, study length 80 weeks) was “negative (inactive)” and the carcinogen call (mouse, strain CFW, males, in feed, site: liver, lesion: one or several types, types not named, dosed 80 weeks, study length 80 weeks) was “negative (inactive)”. The TD50 (mouse, strain CFW, males, in feed, site: lung, lesion: adenoma, dosed 80 weeks, study length 80 weeks) was 3660 mg/kg/day (inactive), the carcinogen call (rat, strain CFE, females, in feed, site: liver, lesion: one or several types, types not named, dosed 104 weeks, study length 104 weeks) was “negative (inactive)” and the carcinogen call (rat, strain CFE, males, in feed, site: liver, lesion: one or several types, types not named, dosed 104 weeks, study length 104 weeks) was “negative (inactive)”.
For `CCNc1nc(Cl)nc(NC(C)(C)C#N)n1`, the TD50 (rat, strain Charles River CD (Sprague-Dawley), females, in feed, site: liver, lesion: hepatocellular adenoma, dosed 105 weeks, study length 105 weeks) was 280 mg/kg/day, the TD50 (rat, strain Charles River CD (Sprague-Dawley), females, in feed, site: mammary gland, lesion: adenocarcinoma, dosed 105 weeks, study length 105 weeks) was 6.65 mg/kg/day and the TD50 (rat, strain Charles River CD (Sprague-Dawley), females, in feed, site: mammary gland, lesion: benign tumor, dosed 52 weeks, study length 52 weeks) was 8.77 mg/kg/day. For the same compound, the TD50 (rat, strain Charles River CD (Sprague-Dawley), females, in feed, site: mammary gland, lesion: carcinosarcoma, dosed 105 weeks, study length 105 weeks) was 140 mg/kg/day, the TD50 (rat, strain Charles River CD (Sprague-Dawley), females, in feed, site: mammary gland, lesion: fibroadenoma, dosed 52 weeks, study length 52 weeks) was 3.03 mg/kg/day and the TD50 (rat, strain Charles River CD (Sprague-Dawley), females, in feed, site: mammary gland, lesion: malignant tumor, dosed 105 weeks, study length 105 weeks) was 6.33 mg/kg/day. The TD50 (rat, strain Charles River CD (Sprague-Dawley), females, in feed, site: mammary gland, lesion: several types, types named in the paper, dosed 105 weeks, study length 105 weeks) was 22.9 mg/kg/day, the carcinogen call (rat, strain Charles River CD (Sprague-Dawley), males, in feed, site: liver, lesion: hepatocellular adenoma, dosed 104 weeks, study length 104 weeks) was “negative (inactive)” and the carcinogen call (rat, strain Charles River CD (Sprague-Dawley), males, in feed, site: liver, lesion: one or several types, types not named, dosed 52 weeks, study length 52 weeks) was “negative (inactive)”.
For `c1ccc2[nH]c(-c3cscn3)nc2c1`, the TD50 (mouse, strain B6C3F1, males, in feed, site: liver, lesion: hepatocellular adenoma, dosed 52 weeks, study length 52 weeks) was 390 mg/kg/day (inactive), the carcinogen call (mouse, strain Crj: CD-1 (ICR), females, in feed, site: liver, lesion: one or several types, types not named, dosed 78 weeks, study length 78 weeks) was “negative (inactive)” and the TD50 (mouse, strain Crj: CD-1 (ICR), females, in feed, site: lung, lesion: alveolar/bronchiolar adenoma, dosed 78 weeks, study length 78 weeks) was 4880 mg/kg/day (inactive). The carcinogen call (mouse, strain Crj: CD-1 (ICR), females, in feed, site: lung, lesion: alveolar/bronchiolar carcinoma, dosed 78 weeks, study length 78 weeks) was “negative (inactive)”, the TD50 (mouse, strain Crj: CD-1 (ICR), females, in feed, site: urinary bladder, lesion: mesenchymal neoplasm, dosed 78 weeks, study length 78 weeks) was 16300 mg/kg/day (inactive) and the carcinogen call (mouse, strain Crj: CD-1 (ICR), males, in feed, site: liver, lesion: hepatocellular adenoma, dosed 78 weeks, study length 78 weeks) was “negative (inactive)”. The carcinogen call (mouse, strain Crj: CD-1 (ICR), males, in feed, site: liver, lesion: hepatocellular carcinoma, dosed 78 weeks, study length 78 weeks) was “negative (inactive)”, the carcinogen call (mouse, strain Crj: CD-1 (ICR), males, in feed, site: lung, lesion: alveolar/bronchiolar adenoma, dosed 78 weeks, study length 78 weeks) was “negative (inactive)” and the carcinogen call (mouse, strain Crj: CD-1 (ICR), males, in feed, site: lung, lesion: alveolar/bronchiolar carcinoma, dosed 78 weeks, study length 78 weeks) was “negative (inactive)”. The TD50 (mouse, strain Crj: CD-1 (ICR), males, in feed, site: urinary bladder, lesion: transitional-cell papilloma, dosed 78 weeks, study length 78 weeks) was 15000 mg/kg/day (inactive), the carcinogen call (rat, strain F344/DuCrj, females, in feed, site: kidney, lesion: transitional-cell carcinoma, dosed 104 weeks, study length 104 weeks) was “negative (inactive)” and the carcinogen call (rat, strain F344/DuCrj, females, in feed, site: liver, lesion: one or several types, types not named, dosed 104 weeks, study length 104 weeks) was “negative (inactive)”. For the same compound, the TD50 (rat, strain F344/DuCrj, females, in feed, site: urinary bladder, lesion: transitional-cell papilloma, dosed 104 weeks, study length 104 weeks) was 7640 mg/kg/day (inactive), the TD50 (rat, strain F344/DuCrj, males, in feed, site: kidney, lesion: transitional-cell carcinoma, dosed 104 weeks, study length 104 weeks) was 3050 mg/kg/day (inactive) and the carcinogen call (rat, strain F344/DuCrj, males, in feed, site: liver, lesion: one or several types, types not named, dosed 104 weeks, study length 104 weeks) was “negative (inactive)”. The TD50 (rat, strain F344/DuCrj, males, in feed, site: preputial gland, lesion: adenoma, dosed 104 weeks, study length 104 weeks) was 571 mg/kg/day and the carcinogen call (rat, strain F344/DuCrj, males, in feed, site: urinary bladder, lesion: transitional-cell papilloma, dosed 104 weeks, study length 104 weeks) was “negative (inactive)”.
With `N` the carcinogen call (mouse, strain C3H (MTV+), females, in drinking water, site: mammary gland, lesion: adenocarcinoma, dosed 104 weeks, study length 104 weeks) was “negative (inactive)”, the carcinogen call (mouse, strain Swiss, females, in drinking water, site: lung, lesion: several types, types named in the paper, dosed 119 weeks, study length 121 weeks) was “negative (inactive)” and the TD50 (mouse, strain Swiss, males, in drinking water, site: liver, lesion: several types, types named in the paper, dosed 120 weeks, study length 124 weeks) was 26700 mg/kg/day. The TD50 (mouse, strain Swiss, males, in drinking water, site: lung, lesion: adenocarcinoma, dosed 120 weeks, study length 124 weeks) was 7330 mg/kg/day (inactive) and the TD50 (mouse, strain Swiss, males, in drinking water, site: lung, lesion: several types, types named in the paper, dosed 120 weeks, study length 124 weeks) was 15300 mg/kg/day (inactive).
With `Nc1ccccc1-c1ccccc1` the TD50 (mouse, strain B6C3F1, females, in feed, site: all sites, lesion: angiosarcoma + hemangioma, dosed 103 weeks, study length 104 weeks) was 1120 mg/kg/day, the TD50 (mouse, strain B6C3F1, females, in feed, site: all sites, lesion: angiosarcoma, dosed 103 weeks, study length 104 weeks) was 1280 mg/kg/day and the TD50 (mouse, strain B6C3F1, females, in feed, site: any site (literature study), lesion: several types, types named in the paper, dosed 103 weeks, study length 104 weeks) was 1880 mg/kg/day. It also gave a TD50 (mouse, strain B6C3F1, females, in feed, site: liver, lesion: hepatocellular adenoma + hepatocellular carcinoma + neoplastic nodule, dosed 103 weeks, study length 104 weeks) of 2000 mg/kg/day, a TD50 (mouse, strain B6C3F1, females, in feed, site: lung, lesion: alveolar/bronchiolar adenoma + alveolar/bronchiolar carcinoma, dosed 103 weeks, study length 104 weeks) of 26100 mg/kg/day and a TD50 (mouse, strain B6C3F1, males, in feed, site: all sites, lesion: angiosarcoma + hemangioma + hemangiosarcoma, dosed 103 weeks, study length 104 weeks) of 1250 mg/kg/day. It also gave a TD50 (mouse, strain B6C3F1, males, in feed, site: all sites, lesion: angiosarcoma + hemangiosarcoma, dosed 103 weeks, study length 104 weeks) of 1810 mg/kg/day, a TD50 (mouse, strain B6C3F1, males, in feed, site: any site (literature study), lesion: several types, types named in the paper, dosed 103 weeks, study length 104 weeks) of 720 mg/kg/day and a TD50 (mouse, strain B6C3F1, males, in feed, site: liver, lesion: hepatocellular adenoma + hepatocellular carcinoma + neoplastic nodule, dosed 103 weeks, study length 104 weeks) of 1700 mg/kg/day. For the same compound, the carcinogen call (rat, strain Fischer 344, females, in feed, site: any site (literature study), lesion: several types, types named in the paper, dosed 103 weeks, study length 105 weeks) was “negative (inactive)”, the TD50 (rat, strain Fischer 344, females, in feed, site: liver, lesion: hepatocellular adenoma + hepatocellular carcinoma + neoplastic nodule, dosed 103 weeks, study length 105 weeks) was 363 mg/kg/day and the carcinogen call (rat, strain Fischer 344, males, in feed, site: any site (literature study), lesion: several types, types named in the paper, dosed 103 weeks, study length 104 weeks) was “negative (inactive)”.
With `C=C1CC[C@H](O)C/C1=C/C=C1\CCC[C@]2(C)[C@@H]([C@H](C)CC[C@@H](O)C(C)(C)O)CC[C@@H]12` the TD50 (rat, strain Slc-Wistar, males, in feed, site: adrenal medulla, lesion: pheochromocytoma, dosed 57 weeks, study length 57 weeks) was 0.803 mg/kg/day and the carcinogen call (rat, strain Slc-Wistar, males, in feed, site: stomach, glandular, lesion: adenocarcinoma, dosed 57 weeks, study length 57 weeks) was “negative (inactive)”.
In the case of `OCCOCCO`, the carcinogen call (rat, strain F344/DuCrj, females, in drinking water, site: any site (literature study), lesion: several types, types named in the paper, dosed 108 weeks, study length 108 weeks) is reported as “negative (inactive)”, the carcinogen call (rat, strain F344/DuCrj, females, in drinking water, site: liver, lesion: neoplastic nodule, dosed 108 weeks, study length 108 weeks) is reported as “negative (inactive)” and the carcinogen call (rat, strain F344/DuCrj, males, in drinking water, site: any site (literature study), lesion: several types, types named in the paper, dosed 108 weeks, study length 108 weeks) is reported as “negative (inactive)”. The TD50 (rat, strain F344/DuCrj, males, in drinking water, site: liver, lesion: neoplastic nodule, dosed 108 weeks, study length 108 weeks) was 34200 mg/kg/day (inactive) and the TD50 (rat, strain Osborne-Mendel, males, in feed, site: urinary bladder, lesion: several types, types named in the paper, dosed 104 weeks, study length 104 weeks) was 1660 mg/kg/day.
For `CCCCOC(=O)COc1ccc(Cl)cc1Cl`, the carcinogen call (mouse, strain B6AKF1, females, oral dosing, site: any site (literature study), lesion: several types, types named in the paper, dosed 76 weeks, study length 76 weeks) was “negative (inactive)”, the carcinogen call (mouse, strain B6AKF1, females, oral dosing, site: liver, lesion: hepatoma, dosed 76 weeks, study length 76 weeks) was “negative (inactive)” and the carcinogen call (mouse, strain B6AKF1, females, oral dosing, site: lung, lesion: adenoma, dosed 76 weeks, study length 76 weeks) was “negative (inactive)”. For the same compound, the carcinogen call (mouse, strain B6AKF1, males, oral dosing, site: any site (literature study), lesion: several types, types named in the paper, dosed 76 weeks, study length 76 weeks) was “negative (inactive)”, the carcinogen call (mouse, strain B6AKF1, males, oral dosing, site: liver, lesion: hepatoma, dosed 76 weeks, study length 76 weeks) was “negative (inactive)” and the carcinogen call (mouse, strain B6AKF1, males, oral dosing, site: lung, lesion: adenoma, dosed 76 weeks, study length 76 weeks) was “negative (inactive)”. For the same compound, the TD50 (mouse, strain B6C3F1, females, oral dosing, site: any site (literature study), lesion: several types, types named in the paper, dosed 76 weeks, study length 76 weeks) was 29.7 mg/kg/day (inactive), the carcinogen call (mouse, strain B6C3F1, females, oral dosing, site: liver, lesion: hepatoma, dosed 76 weeks, study length 76 weeks) was “negative (inactive)” and the carcinogen call (mouse, strain B6C3F1, females, oral dosing, site: lung, lesion: several types, types named in the paper, dosed 76 weeks, study length 76 weeks) was “negative (inactive)”. For the same compound, the TD50 (mouse, strain B6C3F1, males, oral dosing, site: any site (literature study), lesion: several types, types named in the paper, dosed 76 weeks, study length 76 weeks) was 38.1 mg/kg/day (inactive), the TD50 (mouse, strain B6C3F1, males, oral dosing, site: liver, lesion: hepatoma, dosed 76 weeks, study length 76 weeks) was 122 mg/kg/day (inactive) and the TD50 (mouse, strain B6C3F1, males, oral dosing, site: lung, lesion: adenoma, dosed 76 weeks, study length 76 weeks) was 59 mg/kg/day (inactive).
